Consider two compounds from patent US11602534B2, “Pyrimidine derivative kinase inhibitors” (HEFEI INSTITUTES OF PHYSICAL SCIENCE, CHINESE ACADEMY OF …, priority 2017, dated 2023).

The GI50 is the concentration at which growth is held to half of that of the control. A higher GI50 goes with less potent growth inhibition.

The test system of one assay is BaF3. Description: Proliferation of BaF3 cells, CCK8 cell viability assay. It counts as cell-based. Particulars: Mus musculus, 72 hours. An outline of the steps: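 Parental murine BaF3 and IL-3-independent BaF3 transformants driven by TEL–cKIT, TEL–PDGFRα or TEL–PDGFRβ, with human kinase domains stably transduced by retrovirus. CCK8 dehydrogenase read-out gives GI50 (μM).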
(Formazan colour is commonly taken as a measure of viable cells.)

In another assay the test system is Tel-FLT3-BaF3. The assay can be described thus: Proliferation of Tel-FLT3-BaF3 cells, CCK8 cell viability assay. It counts as cell-based. Particulars: Mus musculus, 72 hours, stably expressing FLT3 kinase. An outline of the steps:
(§1)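 Human kinase-region sequences were PCR-amplified, fused behind N-terminal TEL in MSCV-Puro and stably introduced into mouse BaF3 by retrovirus. IL-3 was then removed to give kinase-dependent lines. Compound effects on these and on parental BaF3 are scored as GI50 (μM) via CCK8 viable-cell quantification.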

Another assay deals with Tel-RET-BaF3. Description: Proliferation of Tel-RET-BaF3 cells, CCK8 cell viability assay. The class given is cell-based. Particulars: Mus musculus, 72 hours, stably expressing RET kinase.
Another assay relates to TEL-VEGFR2-BaF3. Description: Proliferation of TEL-VEGFR2-BaF3 cells, CCK8 cell viability assay. Particulars: Mus musculus, 72 hours, stably expressing VEGFR2 kinase. It counts as cell-based. In a few lines: as §1
Assay [1] deals with human acute myeloid leukemia cell strain MV4-11. Description: Proliferation of MV4-11 cells, Cell Titer-Glo. It counts as cell-based. Conditions: for GI50: Homo sapiens, MV4-11, 72 hours, Cell Titer-Glo, FLT3/ITD. The method, then:
In addition, in this example the inhibitory activity of preferred compounds (Compound 5 and Compound 135) was tested against the following cell strains: human acute myeloid leukemia cell strain MV4-11 (expressing FLT3/ITD mutant gene), human acute myeloid leukemia cell strain MOLM-13 (expressing FLT3/ITD mutant gene and wild-type FLT3 gene), human acute myeloid leukemia cell strain MOLM-14 (expressing FLT3/ITD mutant gene and wild-type FLT3 gene), human acute myeloid leukemia cell strain OCI-AML-3 (expressing FLT3 A680V mutant gene), human chronic lymphatic leukemia cell strain MEC-1, Chinese hamster lung (CHL) cells, Chinese hamster ovary (CHO) cells, wherein all the cells were purchased from ATCC. In the example the compounds of the present invention were added respectively into the above cells at different concentrations (0.000508 μM, 0.00152 μM, 0.00457 μM, 0.0137 μM, 0.0411 μM, 0.123 μM, 0.370 μM, 1.11 μM, 3.33 μM, 10 μM in DMSO) and the cells were incubated for 72 hours. The number of viable cells was determined by quantification of ATP in living cells using Cell Titer-Glo® (Promega, the USA) Luminescent Cell Viability Assay kit and thereby GI50 was calculated.
In general terms: ATP-based viability assays read luminescence as a measure of living cells.

Assay [2] can be described thus: Phosphorylation of STATS downstream of FLT3 in AML cells. The class given is cell-based, human. Particulars: MV-4-11, MOLM13 and MOLM-14; 4 hours; compounds 0.01-3 μM, PKC412 1 μM. The method, then:
(§2) In cells having FLT3 gene and/or FLT3/ITD mutant gene, specifically, human acute myeloid leukemia cells MV4-11 (expressing FLT3/ITD mutant gene) cell strain and human acute myeloid leukemia cells MOLM-13 and MOLM-14 (expressing FLT3/ITD mutant gene and wild-type FLT3 gene) cell strains, Compound 5, Compound 135 and a FLT3 kinase inhibitor, PKC412 (purchased from Hao Yuan Chemexpress Company, Shanghai), which was used as the control, were evaluated for their effects in cells on phosphorylation of FLT3 and FLT3/ITD protein kinase and phosphorylation of the closely-related STATS protein which is downstream of FLT3 signaling pathways, as well as their effects on phosphorylation of other relevant protein kinases such as ERK and AKT, by assaying a number of cellular biochemical and functional endpoints. In addition, the effects on C-Myc and phosphorylation of the transcription factor NF-κB subunit p65 was also examined (FIGS. 1a-1f). Compound 5 and Compound 135 at different concentrations (0 μM, 0.01 μM, 0.03 μM, 0.1 μM, 0.3 μM, 1 μM, 3 μM in DMSO) and the FLT3 kinase inhibitor PKC412 (1 μM in DMSO) were used to treat acute myeloid leukemia cells MV-4-11, MOLM13 and MOLM-14 that had FLT3 and/or FLT3/ITD gene for 4 hours, respectively, and then the samples were collected. The effects of the compounds on the phosphorylation of proteins such as STATS, C-Myc, ERK, NF-κB p65, AKT in cells were tested (FIGS. 1a-1f).

A further assay relates to C-Myc. Description: Degradation of C-Myc in AML cells. Conditions: MV-4-11, MOLM13 and MOLM-14; 4 hours; compounds 0.01-3 μM, PKC412 1 μM. The class given is cell-based, human. The method, then: as §2
For the next assay, the system named is MV4-11 cells. The assay can be described thus: Nude mouse model harboring subcutaneous MV4-11 tumor. It counts as in vivo. Conditions: for tumor volume increase: oral gavage; for tumor growth in mice: MV4-11 subcutaneous tumor, daily oral gavage, four weeks. The method, then: In order to determine the inhibitory effect of Compound 5 and Compound 135 on tumors in vivo, a nude mouse model harboring subcutaneous tumor was introduced. 44 mice (5-week-old) (Balb/c-nu female mice, purchased from Shanghai Snake Experimental Animal Co., Ltd.) were inoculated subcutaneously with MV4-11 cells at 1×10^7 cells/mouse, and the changes in body weight and tumor volume were recorded daily (tumor volume=tumor length×tumor width×tumor width/2). 10 days later, the mice, of which tumor volumes reached 200 mm^3, were randomized into seven groups with 5-9 mice in each group, and were treated as follows: the first group was administered daily by oral gavage with vehicle, i.e., methylcellulose-based aqueous suspension (purchased from Sinopharm Group Chemical Reagent Co., Ltd.); the second, third and the fourth groups were administered daily by oral gavage with 25 mg/kg, 50 mg/kg, 100 mg/kg of Compound 135 in a methylcellulose-based aqueous suspension formulation; the fifth, sixth and seventh groups were administered daily by oral gavage with 25 mg/kg, 50 mg/kg, 100 mg/kg of Compound 5 in a methylcellulose-based aqueous suspension formulation. The first day of administration was recorded as day 0, followed by continuous administration for four weeks (FIGS. 3a-3b).

As to `CC(=O)Nc1cc(Oc2ccc(NC(=O)Cc3ccccc3C(F)(F)F)cc2)ncn1` [Example 135, N-[4-(6-acetylamino-pyrimidin-4-yloxy)-phenyl]-2-(2-trifluoromethyl-phenyl)-acetamide], the GI50 in the assay on BaF3 is above 10 µM; in the assay with Tel-FLT3-BaF3, 249 nM; in the assay with Tel-RET-BaF3, above 10 µM; with TEL-VEGFR2-BaF3 it was 1440 nM; in assay [1] it was 284 nM. Further, the “phosphorylation of STATS” value in assay [2] was “significant inhibition”. Besides, the “degradation of C-Myc” value in the assay on C-Myc is “significant effects on the degradation”. Also, the tumor volume increase result is “slowed significantly” in the assay with MV4-11 cells (50 mg/kg/day) and “slowed vastly” with MV4-11 cells (100 mg/kg/day). Further, the “tumor growth in mice” value in the assay on MV4-11 cells is listed as “significantly inhibited”.
Take `CC(=O)Nc1cc(Oc2ccc(NC(=O)Cc3ccc(F)cc3F)cc2)ncn1` [Example 5, N-[4-(6-acetylamino-pyrimidin-4-yloxy)-phenyl]-2-(2,4-difluoro-phenyl)-acetamide]: the GI50 in the assay with BaF3 is above 10 µM; with Tel-FLT3-BaF3, 746 nM; in the assay on Tel-RET-BaF3 it was above 10 µM; in the assay on TEL-VEGFR2-BaF3, 357 nM; in assay [1], 147 nM. Moreover, in assay [1] (summary of Table 3), the “inhibition of MV4-11 (in words)” value is “selectively and strongly inhibited”. Besides, in assay [2], the “phosphorylation of STATS” value is listed as “significant inhibition”. For the same compound, the “degradation of C-Myc” value in the assay with C-Myc is “significant effects on the degradation”. For the same compound, the results for the tumor volume increase result in the assay on MV4-11 cells (50 mg/kg/day) and in the assay with MV4-11 cells (100 mg/kg/day) were “slowed significantly” and “slowed vastly”, respectively. Also, the “tumor growth in mice” value in the assay on MV4-11 cells is “significantly inhibited”.
